Measurements: PubChem BioAssay AID608 (Sanford-Burnham Center for Chemical Genomics, 2007)
Calls of active or inactive are those of the source. The rule behind the calls is not given here.

target: Peptidyl-prolyl cis-trans isomerase FKBP1A (Homo sapiens) (UniProt P62942); experiment: small-molecule binding to FKBP12 – biophysical, NMR detection (AID 608); details: purified FKBP12
Sequence (P62942 whole entry, looked up): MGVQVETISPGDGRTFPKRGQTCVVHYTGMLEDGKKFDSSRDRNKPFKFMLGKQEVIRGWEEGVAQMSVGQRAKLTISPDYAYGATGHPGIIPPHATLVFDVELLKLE

Structure (SMILES) | Kd
NC(=O)c1cccc(N2C(=O)C=CC2=O)c1 | > 4 mM (inactive)
Cn1ncc(C(=O)O)c1-c1ccccc1 | > 4 mM (inactive)
N/C(=N/O)C1COc2ccccc2O1 (centres undefined) | > 4 mM (inactive)
O=C(O)CCC1=C2c3ccccc3CCN2C(=O)CC1 | > 4 mM (inactive)
Oc1ccccc1-c1nnco1 | > 4 mM (inactive)
Cc1nn(C)c(C)c1NC(=S)NC1CCCC1 | > 4 mM (inactive)
COC(=O)C[C@@H]1C2(C)C(=O)[C@@H](CC3C2CC[C@]2(C)C3CC(=O)O[C@H]2c2ccoc2)[C@H](OC(C)=O)C1(C)C (some centres undefined) | > 4 mM (inactive)
C=CCc1ccc(O)c(OC)c1 | > 4 mM (inactive)
COc1cnn(Cc2ccccc2)c(=O)c1Cl | > 4 mM (inactive)
O=C1CSC(=NC(=O)c2ccccc2)N1 | > 4 mM (inactive)
Cc1cc(=O)cc(C)n1-c1ccccc1N | > 4 mM (inactive)
CC(=O)Nc1ccccc1OCC(N)=O | > 4 mM (inactive)
CC1(C)O[C@H]2CC(=O)OC[C@]23[C@H]2CC[C@@]4(C)[C@H](c5ccoc5)OC(=O)[C@H]5O[C@]54[C@]2(C)C(=O)C[C@@H]13 | > 4 mM (inactive)
C=CCn1c(=S)[nH]c2ccc(Br)cc2c1=O | > 4 mM (inactive)
O=c1n(-c2ccccc2)c(=O)n2n1CCCC2 | > 4 mM (inactive)
N#CCCn1ccnc1-c1ccccc1 | > 4 mM (inactive)
S=C(Cc1cccnc1)N1CCOCC1 | > 4 mM (inactive)
OCc1cccc2c1OCO2 | > 4 mM (inactive)
COc1cccc(/C=C2/SC(N)=NC2=O)c1 | > 4 mM (inactive)
Cn1nnc2cc(CO)ccc21 | > 4 mM (inactive)

Structure (SMILES) | Kd
CCN1CCC(NC2CCCCNC2=O)CC1 (centres undefined) | > 4 mM (inactive)
NC(=O)Cc1nc2ccccc2[nH]1 | > 4 mM (inactive)
NC(C(=O)O)C(O)c1ccccc1 (centres undefined) | > 4 mM (inactive)
OCc1ncoc1-c1ccccc1 | > 4 mM (inactive)
NC(=O)NCCCC(N)C(=O)O (centres undefined) | > 4 mM (inactive)
COc1ccc(C(=O)NCC(=O)O)cc1 | > 4 mM (inactive)
S=c1oc(-c2ccncc2)nn1CCc1ccncc1 | inactive
CC1=C2C(=CO[C@H](C)[C@H]2C)C(=O)C(C(=O)O)=C1O | > 4 mM (inactive)
Cc1ccccc1CSc1nnc(C)n1N | > 4 mM (inactive)
OCc1ccc(-c2ccccn2)s1 | > 4 mM (inactive)
CC1=NNC(=O)C1CCc1ccncc1 (centres undefined) | > 4 mM (inactive)
CN1CCN(c2ccc(C(=O)O)cc2)CC1 | > 4 mM (inactive)
OC[C@H]1O[C@@H](n2cnc3c(NCc4ccco4)ncnc32)[C@H](O)[C@@H]1O | > 4 mM (inactive)
Cc1nc(NC(=O)c2cccnc2)ccc1Br | > 4 mM (inactive)
CC(=O)c1ccc(N2C(=O)C(C(C)C)NC2=S)cc1 (centres undefined) | > 4 mM (inactive)
Cc1[nH]c2ccccc2c1Cc1n[nH]c(=S)n1C | > 4 mM (inactive)
Cc1cc(C)c2nncn2n1 | > 4 mM (inactive)
NC(=O)CSCc1ccc(Br)cc1 | > 4 mM (inactive)
Cc1ccc(NS(=O)(=O)N2CCCCC2)c(C)c1 | 0.436 mM
O=C(Nc1ccccn1)c1cc(-n2cnnc2)ccc1Cl | > 4 mM (inactive)

Structure (SMILES) | Kd
Cn1ncc(SCc2ccco2)c(Cl)c1=O | > 4 mM (inactive)
CN1C(=O)C2CC=C(Cl)CC2C1=O (centres undefined) | > 4 mM (inactive)
CC(=O)NC(=S)Nc1nc2ccccc2n1C(C)=O | > 4 mM (inactive)
Cn1c(SCC(N)=O)nnc1-c1c[nH]c2ccccc12 | > 4 mM (inactive)
OCc1ccc(Oc2ccccc2)nc1 | > 4 mM (inactive)
CC(C)[C@@H]1CC[C@@H](C)C[C@H]1O | > 4 mM (inactive)
CC(=O)N(C)Cc1nc2ccccc2n1C | > 4 mM (inactive)
O=[N+]([O-])c1c[n+]([O-])n(-c2ccccc2)n1 | > 4 mM (inactive)
O=C(O)c1cccc(CSc2ncccn2)c1 | > 4 mM (inactive)
O=C1CSC(=S)N1Cc1cccnc1 | > 4 mM (inactive)
O=C(Nc1ccccc1)NC1CCS(=O)(=O)C1 (centres undefined) | > 4 mM (inactive)
CC(=O)c1c(C)nc(-c2ccc(Cl)cc2Cl)n1O | > 4 mM (inactive)
COc1ccc(-c2coc3cc(OC(C)=O)cc(OC(C)=O)c3c2=O)cc1 | > 4 mM (inactive)
CN1CCN(C(=O)c2ccccc2N)CC1 | > 4 mM (inactive)
O=C(CSc1ncn[nH]1)c1ccc2c(c1)OCO2 | > 4 mM (inactive)
COC1C=CC23c4cc5c(cc4CN(CC2O)[C@@H]3C1)OCO5 (some centres undefined) | > 4 mM (inactive)
Cc1cc(C)cc(OC(=O)N2CCOCC2)c1 | > 4 mM (inactive)
CS(=O)(=O)N1CCN(C(=O)c2ccccc2)CC1 | > 4 mM (inactive)
O=C(Cc1cccs1)Nc1ccon1 | > 4 mM (inactive)
